For experiment [1], the system named is SNU-16 (Gastric Carcinoma), FGFR2 amplification. The experiment can be described thus: Cancer cell viability assay (Cell Titer-Glo), SNU-16. The class given is cell-based. Particulars: Homo sapiens, SNU-16 cells, 72 hours, read-out: SNU16 FGFR2 (IC50 nM). In short, it runs like this:
(§1)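 Cells seeded at 10,000/well in RPMI1640 with 10% FBS, then exposed 72 h at 37° C. to a 9-point 10-fold dilution series from 30 μM, in triplicate. Viability read as ATP luminescence (CellTiter-Glo 2.0) as percent of DMSO control; IC50 from 4-parameter sigmoidal fit.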
(In general: Cellular ATP, detected with luciferase, serves as a proxy for viable cell number.)

Experiment [2] relates to UM-UC-14 (Bladder Cancer), FGFR3(S249C). Put plainly: Cancer cell viability assay (Cell Titer-Glo), UM-UC-14. The class given is cell-based. Particulars: UMUC14, UM-UC-14 cells, 72 hours. In short, it runs like this:
as §1

Another experiment deals with T1, FGFR2 (Homo sapiens, UniProt P21802).
T1 construct: made in house; host or cells: E. coli derived from BL21, infected with T7 phage
Put plainly: Kinase binding assay (kinase-tagged T7 phage, affinity beads, qPCR readout), FGFR2. Particulars: FGFR binding data. Summed up: (§2)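 Phage lysate kinase + liganded magnetic beads + compound, 11-pt 3-fold series, 0.9% DMSO; 1 h RT shaking. Wash, elute 30 min with 0.5 μM non-biotinylated ligand; qPCR readout. Hill fit, slope −1 → Kd.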
On the technique in general: Quantitative PCR measures a nucleic acid by following its amplification.

For the next experiment, the target named is T2, FGFR3 (Homo sapiens, UniProt P22607).
T2 construct: made in house; host or cells: E. coli derived from BL21, infected with T7 phage
Put plainly: Kinase binding assay (kinase-tagged T7 phage, affinity beads, qPCR readout), FGFR3. Particulars: FGFR binding data. Summed up:
as §2

In experiment [3] the test system is RT112/84 (Bladder Cancer), FGFR3-TACC3 fusion. Put plainly: Cancer cell viability assay (Cell Titer-Glo), RT112/84. The format is cell-based. Particulars: Homo sapiens, RT112/84 cells, 72 hours. In short, it runs like this: as §1
The target in another experiment is T3, FGFR1 (Homo sapiens, UniProt P11362).
T3 construct: made in house; host or cells: E. coli derived from BL21, infected with T7 phage
Put plainly: Kinase binding assay (kinase-tagged T7 phage, affinity beads, qPCR readout), FGFR1. Particulars: FGFR binding data. Summed up:
as §2

The next experiment concerns the target T4, FGFR3 (V555M) (Homo sapiens, UniProt P22607, V555M).
T4 construct: made in house; host or cells: E. coli derived from BL21, infected with T7 phage
The experiment can be described thus: Kinase binding assay (kinase-tagged T7 phage, affinity beads, qPCR readout), FGFR3 (V555M). Particulars: FGFR binding data. Summed up:
as §2

Experiment [4] has as its system KG-1 (Acute Myeloid Leukemia), FGFR1OP2-FGFR1 fusion. Put plainly: Cancer cell viability assay (Cell Titer-Glo), KG-1. The class given is cell-based. Particulars: Homo sapiens, KG-1 cells, 72 hours. An excerpt: RT112/84, UM-UC-14, SNU-16 and KG-1 Cancer Cell Line Cell Viability Assays
To detect the change of intracellular ATP by Cell Titer-Glo@ and to evaluate the inhibitory effect of the compounds on cancer cell lines by determining the in vitro IC50 value of the compounds.
Cell Titer-Glo@ 2.0 Luminescent cell viability assay reagent was purchased from Promega (Madison, WI). RT112/84, SNU-16, and KG-1 cell lines were purchased from American Type Culture Collection (Manassas, VA). UM-UC-14 cell line was purchased from Sigma (St. Louis, MO). RT112/84, UM-UC-14, SNU-16, and KG-1 cells were cultured in RPMI1640 media supplemented with 10% fetal bovine serum. Cultures were maintained at 37° C. in a humidified atmosphere of 5% CO2 and 95% air.
Cell Viability Assay Procedure: Cells were plated in 96-well clear bottom/white plates (Corning #3903) at 10,000 cells/well in 100 μl of media, incubated overnight. The next day, test compound DMSO stock solutions were made at 10 mM and 2 μM final concentration. Compounds were then added to cells in a 9-dose, […] dilution series starting at 30 μM with an HP 300e Digital Dispenser (each dose was applied in triplicate). DMSO was backfilled to each well up to 301 nL total volume of test compound+DMSO, and a total of 301 nL DMSO was added to a control/no test compound well in triplicate. The cells in cell culture plates were incubated with the compounds at 37° C. and 5% CO2 for 72 hours. Then 50 μl of Cell Titer Glo 2.0 reagent was added to each well of the cell culture plates. The contents were covered from light and mixed on an orbital shaker at room temperature for 10 min. Luminescence was recorded by a Synergy H1 Microplate Reader (Biotek, Winooski, VT). Cells were assessed as a percentage of DMSO only treated control cells. Curves were plotted and IC50 values were calculated using the GraphPad Prism 8 program based on a sigmoidal dose-response equation (4 parameter).

T4 sequence (P22607 23-806 V555M): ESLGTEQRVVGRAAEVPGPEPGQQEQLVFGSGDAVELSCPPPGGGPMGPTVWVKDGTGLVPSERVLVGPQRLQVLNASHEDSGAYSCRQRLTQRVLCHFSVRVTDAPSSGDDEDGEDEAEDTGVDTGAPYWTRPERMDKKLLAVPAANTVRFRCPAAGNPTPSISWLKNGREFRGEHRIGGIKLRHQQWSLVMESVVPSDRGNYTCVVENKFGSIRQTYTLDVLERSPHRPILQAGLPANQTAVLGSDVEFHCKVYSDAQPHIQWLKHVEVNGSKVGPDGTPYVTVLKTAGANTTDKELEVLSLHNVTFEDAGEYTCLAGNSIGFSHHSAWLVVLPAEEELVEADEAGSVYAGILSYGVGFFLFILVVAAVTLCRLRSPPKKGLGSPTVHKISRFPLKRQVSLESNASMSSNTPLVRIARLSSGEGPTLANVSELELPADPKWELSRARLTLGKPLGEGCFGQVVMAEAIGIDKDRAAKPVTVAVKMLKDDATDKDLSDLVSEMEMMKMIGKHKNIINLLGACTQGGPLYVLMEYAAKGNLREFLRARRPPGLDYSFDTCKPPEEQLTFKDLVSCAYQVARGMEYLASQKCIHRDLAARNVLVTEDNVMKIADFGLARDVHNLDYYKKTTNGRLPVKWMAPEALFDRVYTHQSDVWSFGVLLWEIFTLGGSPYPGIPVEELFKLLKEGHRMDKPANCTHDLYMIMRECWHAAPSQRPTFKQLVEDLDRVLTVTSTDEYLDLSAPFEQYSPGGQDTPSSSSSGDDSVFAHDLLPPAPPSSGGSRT
T1 sequence (P21802 22-821): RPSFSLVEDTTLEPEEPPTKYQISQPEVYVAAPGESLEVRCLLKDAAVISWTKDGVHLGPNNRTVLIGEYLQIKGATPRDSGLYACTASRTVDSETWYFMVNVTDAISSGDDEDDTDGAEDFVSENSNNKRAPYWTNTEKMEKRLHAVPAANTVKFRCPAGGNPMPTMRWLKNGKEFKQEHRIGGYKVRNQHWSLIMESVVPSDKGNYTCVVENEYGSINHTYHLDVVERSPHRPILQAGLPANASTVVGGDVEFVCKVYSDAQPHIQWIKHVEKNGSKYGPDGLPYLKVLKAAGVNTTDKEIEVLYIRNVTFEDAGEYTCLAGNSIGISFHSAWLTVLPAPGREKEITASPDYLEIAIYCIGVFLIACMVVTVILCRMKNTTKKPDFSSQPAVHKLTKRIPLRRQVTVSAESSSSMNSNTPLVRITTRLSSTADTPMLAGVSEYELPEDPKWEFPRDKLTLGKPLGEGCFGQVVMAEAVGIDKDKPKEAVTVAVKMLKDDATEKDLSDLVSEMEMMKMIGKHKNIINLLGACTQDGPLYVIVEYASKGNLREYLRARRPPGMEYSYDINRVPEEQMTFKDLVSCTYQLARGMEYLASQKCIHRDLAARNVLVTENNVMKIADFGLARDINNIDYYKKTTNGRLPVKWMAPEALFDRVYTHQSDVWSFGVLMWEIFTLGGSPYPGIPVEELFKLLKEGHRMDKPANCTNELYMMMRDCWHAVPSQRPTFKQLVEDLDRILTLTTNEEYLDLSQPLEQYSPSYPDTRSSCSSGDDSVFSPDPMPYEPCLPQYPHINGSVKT
T2 sequence (P22607 23-806): as the sequence (P22607 23-806 V555M) above, with M533V counted along it
T3 sequence (P11362 22-822): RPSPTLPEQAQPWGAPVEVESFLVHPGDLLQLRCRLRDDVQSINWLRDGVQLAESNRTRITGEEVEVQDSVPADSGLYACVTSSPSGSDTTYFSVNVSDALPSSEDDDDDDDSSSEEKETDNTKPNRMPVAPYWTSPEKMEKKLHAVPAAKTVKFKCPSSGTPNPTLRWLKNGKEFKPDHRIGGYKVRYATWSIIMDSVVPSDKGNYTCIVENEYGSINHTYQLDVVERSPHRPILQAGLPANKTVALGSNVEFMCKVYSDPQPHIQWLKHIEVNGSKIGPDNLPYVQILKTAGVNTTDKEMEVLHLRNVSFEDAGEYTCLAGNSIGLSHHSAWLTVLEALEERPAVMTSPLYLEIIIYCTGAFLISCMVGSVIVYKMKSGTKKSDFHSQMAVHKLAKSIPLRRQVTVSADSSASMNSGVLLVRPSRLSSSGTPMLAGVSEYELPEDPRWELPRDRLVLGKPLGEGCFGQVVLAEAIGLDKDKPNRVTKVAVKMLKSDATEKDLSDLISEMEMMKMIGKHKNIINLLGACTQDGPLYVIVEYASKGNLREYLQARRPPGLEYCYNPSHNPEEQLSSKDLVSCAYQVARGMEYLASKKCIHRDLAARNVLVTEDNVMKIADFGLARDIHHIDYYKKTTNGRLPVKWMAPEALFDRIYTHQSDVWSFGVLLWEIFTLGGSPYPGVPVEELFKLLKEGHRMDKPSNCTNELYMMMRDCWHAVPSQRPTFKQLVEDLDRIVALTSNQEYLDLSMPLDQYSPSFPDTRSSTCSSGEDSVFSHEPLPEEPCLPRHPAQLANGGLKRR

For `C=CC(=O)Nc1ccc2c(c1)c(C)cn2-c1ccnc(Nc2ccc(N3CCOCC3)cc2)n1` [Example 54, N-[3-Methyl-1-[2-(4-morpholinoanilino)pyrimidin-4-yl]indol-5-yl]prop-2-enamide], the IC50 in experiment [1], in experiment [2], in experiment [3] and in experiment [4] was 0.1 to 100 nM each time. Moreover, the Kd on FGFR2, on FGFR3, at FGFR1 and on FGFR3 (V555M) was 0.1 to 100 nM in each case.

On to `C=CC(=O)Nc1ccc2c(c1)c(C)cn2-c1nc(Nc2ccc(N3CCOCC3)cc2)ncc1C` [Example 44, N-[3-methyl-1-[5-methyl-2-(4-morpholinoanilino)pyrimidin-4-yl]indol-5-yl]prop-2-enamide], for which the IC50 in experiment [1], in experiment [2], in experiment [3] and in experiment [4] was 0.1 to 100 nM in each case. The Kd at FGFR2, on FGFR3, on FGFR1 and at FGFR3 (V555M) was 0.1 to 100 nM in each case.

`C=CC(=O)Nc1ccc2c(-c3ccnc(Nc4cnn(CCO)c4)n3)cn(C)c2c1` [Example 106, N-[3-[2-[[1-(2-hydroxyethyl)pyrazol-4-yl]amino]pyrimidin-4-yl]-1-methyl-indol-6-yl]prop-2-enamide]: the IC50 in experiment [1], in experiment [2], in experiment [3] and in experiment [4] was 0.1 to 100 nM throughout. Further, the Kd on FGFR2, at FGFR3, at FGFR1 and on FGFR3 (V555M) was 0.1 to 100 nM in each case.

As to `C=CC(=O)Nc1ccc2c(c1)c(C)cn2-c1nc(Nc2cnn(C)c2C)ncc1Cl` [Example 40, N-[1-[5-chloro-2-[(1,5-dimethylpyrazol-4-yl)amino]pyrimidin-4-yl]-3-methyl-indol-5-yl]prop-2-enamide], the IC50 in experiment [2], in experiment [3] and in experiment [4] was 0.1 to 100 nM throughout. Besides, the Kd on FGFR2, at FGFR3, at FGFR1 and at FGFR3 (V555M) was 0.1 to 100 nM throughout.

`C=CC(=O)Nc1ccc2c(c1)c(C)cn2-c1nc(Nc2ccc(N3CCOCC3)cc2)ncc1F` [Example 67, N-[1-[5-Fluoro-2-(4-morpholino-anilino)pyrimidin-4-yl]-3-methyl-indol-5-yl]prop-2-enamide]: the IC50 in experiment [2], in experiment [3] and in experiment [4] was 0.1 to 100 nM each time. Moreover, the equilibrium dissociation constant (Kd) on FGFR2, on FGFR3, on FGFR1 and on FGFR3 (V555M) was 0.1 to 100 nM in each case.

As to `C=CC(=O)Nc1ccc2c(ccn2-c2nc(Nc3ccc(OCCN4CCOCC4)cc3)ncc2Cl)c1` [Example 10, N-[1-[5-chloro-2-[4-(2-morpholinoethoxy)anilino]pyrimidin-4-yl]indol-5-yl]prop-2-enamide], the IC50 in experiment [2], in experiment [3] and in experiment [4] was 0.1 to 100 nM each time. For the same compound, the Kd at FGFR2 lay in the range of 100 to 250 nM; at FGFR3 it was 0.1 to 100 nM; at FGFR1, 100 to 250 nM; on FGFR3 (V555M) it was 0.1 to 100 nM.

Regarding `C=CC(=O)Nc1ccc2c(c1)c(C)cn2-c1nc(Nc2cn(C)nc2OC)ncc1Cl` [Example 26, N-[1-[5-chloro-2-[(3-methoxy-1-methyl-pyrazol-4-yl)amino]pyrimidin-4-yl]-3-methyl-indol-5-yl]prop-2-enamide], the IC50 in experiment [2] was 0.1 to 100 nM; in experiment [3], 100 to 250 nM; in experiment [4], 0.1 to 100 nM. For the same compound, the dissociation constant Kd on FGFR2, on FGFR3, at FGFR1 and on FGFR3 (V555M) was 0.1 to 100 nM throughout.

The term IC50 denotes the concentration at which inhibition is half-maximal. Broadly, the Kd is the constant that tells how readily two partners part at equilibrium. The low end stands for a tighter complex, the high end for a looser complex.

The values are drawn from patent US20240190849A1, “AMINOPYRIMIDINE COMPOUNDS AND METHODS OF THEIR USE” (TYRA BIOSCIENCES, INC., priority 2021, published 2024).
